Like-named read-outs stand apart in the source and are kept apart here.
Columns and labels:
AChE = molecular target: T1, AChE (Rattus norvegicus, UniProt P37136); assay: biochemical; settings: for inhibition at 1 µM: tested at 1 μM, rat hippocampal homogenate, read-out: AChE Inhibition (%) ± SEM
T1 sequence (P37136 32-614): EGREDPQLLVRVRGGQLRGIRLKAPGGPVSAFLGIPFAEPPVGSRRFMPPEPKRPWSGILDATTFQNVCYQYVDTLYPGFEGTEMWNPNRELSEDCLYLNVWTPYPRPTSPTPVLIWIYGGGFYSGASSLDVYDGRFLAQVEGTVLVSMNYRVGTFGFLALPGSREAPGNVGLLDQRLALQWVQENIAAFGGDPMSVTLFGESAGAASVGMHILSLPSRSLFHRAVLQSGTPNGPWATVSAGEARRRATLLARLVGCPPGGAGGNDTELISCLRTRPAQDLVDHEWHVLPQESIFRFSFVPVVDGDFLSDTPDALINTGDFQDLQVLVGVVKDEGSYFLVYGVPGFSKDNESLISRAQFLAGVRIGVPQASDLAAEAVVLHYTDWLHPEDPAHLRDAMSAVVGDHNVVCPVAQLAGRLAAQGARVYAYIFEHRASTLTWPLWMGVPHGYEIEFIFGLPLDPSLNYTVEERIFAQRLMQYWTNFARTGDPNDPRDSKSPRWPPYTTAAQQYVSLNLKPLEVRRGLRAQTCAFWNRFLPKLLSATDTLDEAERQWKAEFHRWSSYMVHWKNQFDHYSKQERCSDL
Protocol: Male Wistar rats weighing 230–250 g were used. AChE activity was assessed using a colorimetric reported method with minor modifications. Hippocampal tissue was homogenized in 39 volumes of 75 mM sodium phosphate buffer (pH 7.4). A mixture of 2 mL containing the compounds assessed, acetylthiocholine iodide, and 50 μL tissue homogenate was incubated for 8 min. […] The extent of color production was measured spectrophometrically at 420 nm using Ultospec 3000 (Pharmacia Biotech, Piscataway, NJ, USA). All samples were assayed in triplicate. Results were expressed as percentages of control values.
Different concentrations of the compounds were tested for their ability to inhibit AChE activity.

in vitro = settings: PAMPA
[1] = for Pe: pig, PAMPA
[2] = tested on: K+-evoked [3H]ACh efflux in rat hippocampal slices; assay: In vitro ACh release, K+-evoked [3H]ACh efflux; type: cell-based
Protocol: Male Wistar rats weighing 230–250 g were used. K^+-evoked [^3H]ACh efflux was measured as previously described [39]. Briefly, the hippocampus was removed and dissected, cut sagittally into 500 µm slices using a McIlwain tissue chopper (The Mickle Laboratory Engineering Co. Ltd., Dorking, UK). […] Fractions were collected at 3-min intervals for a total of 60 min. At 12 min (S1) and 45 min (S2) after equilibration, the slices were depolarized by changing the superfusion fluid during 6 min to a solution containing 20 mM KCl. Drugs were added 15 min before S2. Tritium content was assayed by liquid scintillation spectroscopy. S1 and S2 were calculated as K+-stimulated tritium increases over basal efflux. Results were expressed as the S2/S1 ratio.

SMILES | inhibition at 1 µM (AChE) [%] | Papp (in vitro) [nm/s] | PAMPA-BBB Classification [1] | Pe [1] | Papp at 20 h, 500 µg/mL (in vitro) [nm/s] | AChE activity inhibition (in words) (AChE; 0.01–10 µM, in vitro) | IC50 (AChE; estimated from non-linear fitted dose-response curves, 0.01–10 µM) [µM] | Pe ([1]; 20 h, 500 µg/mL) | K+-evoked [3H]ACh efflux [2]
NS(=O)(=O)c1ccc(OCCCN2CCOCC2)cc1 [Compound 3] | < 5 |  |  |  |  |  |  |  | 
O=C(Nc1cccc2ccccc12)NS(=O)(=O)c1ccc(OCCCN2CCCC2)cc1 [Compound 5] | 25.2 ± 7.7 |  |  |  |  |  |  |  | 
CN(C)c1ccc(NC(=O)NS(=O)(=O)c2ccc(OCCCN3CCCC3)cc2)cc1 [Compound 6] | 29.9 ± 3.63 | 3.2 ± 0.1 | CNS − (key: CNS +/−: BBB permeation uncertain: Pe (10^−6 cm/s) from 4.0 to 2.0; CNS −: low BBB permeation predicted: Pe (10^−6 cm/s < 2.0) | 0.32 |  |  |  |  | 
O=C(NC(c1ccccc1)c1ccccc1)NS(=O)(=O)c1ccc(OCCCN2CCCC2)cc1 [Compound 7] | > 37 |  | CNS − (key: CNS +/−: BBB permeation uncertain: Pe (10^−6 cm/s) from 4.0 to 2.0; CNS −: low BBB permeation predicted: Pe (10^−6 cm/s < 2.0) |  | 4.7 ± 0.6 | significantly inhibit AChE activity in a concentration-dependent manner | > 10 | 0.47 | able to increase ACh release in vitro

Source: PMC10815131, “Novel Pitolisant-Derived Sulfonyl Compounds for Alzheimer Disease” (International Journal of Molecular Sciences, 2024)
